Details: Liquid, Pulse Transmission

O [water]
Details	speed of sound [m/s]
267.88 K, 349500 kPa	1996.1
267.89 K, 199900 kPa	1745.2
273.01 K, 49300 kPa	1483.9
273.02 K, 200500 kPa	1762.6
273.03 K, 50300 kPa	1485.7
273.05 K, 100 kPa	1399.3
273.07 K, 49200 kPa	1484
273.07 K, 499800 kPa	2214.4
273.08 K, 200700 kPa	1763.5
273.08 K, 300600 kPa	1930.8
273.08 K, 399700 kPa	2080.1
273.09 K, 100 kPa	1399.8
273.09 K, 100000 kPa	1578.3
273.09 K, 150200 kPa	1671.7
273.09 K, 150400 kPa	1671.6
273.09 K, 349400 kPa	2006.9
273.1 K, 100 kPa	1398.7
273.1 K, 100500 kPa	1579.6
273.1 K, 250700 kPa	1849
273.1 K, 350400 kPa	2009
273.1 K, 450500 kPa	2150.3
273.1 K, 500400 kPa	2215.2
273.1 K, 550500 kPa	2281.3
273.1 K, 602100 kPa	2345.3
273.11 K, 200300 kPa	1762.7
273.11 K, 250300 kPa	1848.4
273.11 K, 250600 kPa	1848.7
273.11 K, 299900 kPa	1929.5
273.11 K, 550200 kPa	2281.4
273.12 K, 300000 kPa	1929.7
273.12 K, 399600 kPa	2079.5
273.12 K, 401000 kPa	2081.2
273.12 K, 449300 kPa	2149.5
273.12 K, 450200 kPa	2149.8
273.12 K, 550300 kPa	2276.8
273.12 K, 599500 kPa	2342
273.13 K, 150200 kPa	1672.1
273.13 K, 349700 kPa	2007
273.13 K, 499900 kPa	2214.6
273.18 K, 99800 kPa	1577.5
278.05 K, 100 kPa	1425.1
278.05 K, 500300 kPa	2220.9
278.07 K, 349300 kPa	2013.6
278.08 K, 200300 kPa	1775.7
278.08 K, 349600 kPa	2014.7
278.08 K, 400000 kPa	2086.4
278.08 K, 450900 kPa	2156.9
278.08 K, 602100 kPa	2346.8
278.09 K, 49200 kPa	1507.3
278.09 K, 400000 kPa	2087.5
278.09 K, 449700 kPa	2155.5
278.09 K, 500500 kPa	2221.3
278.09 K, 550800 kPa	2286.8
278.09 K, 700200 kPa	2439.8
278.1 K, 299900 kPa	1938.9
278.1 K, 400500 kPa	2089.8
278.1 K, 500400 kPa	2223.3
278.11 K, 561500 kPa	2297.2
278.11 K, 640200 kPa	2390.8
278.12 K, 200800 kPa	1777.1
278.12 K, 250200 kPa	1858.4
278.12 K, 299900 kPa	1939.6
278.12 K, 450800 kPa	2157.8
278.12 K, 600700 kPa	2347.6
278.12 K, 650000 kPa	2402.2
278.13 K, 48300 kPa	1506
278.13 K, 150100 kPa	1688.3
278.13 K, 200100 kPa	1776.7
278.13 K, 250100 kPa	1859.7
278.13 K, 250600 kPa	1859.7
278.13 K, 550600 kPa	2284.7
278.14 K, 150100 kPa	1689.2
278.15 K, 100 kPa	1424.8
278.15 K, 99600 kPa	1597.6
278.16 K, 99900 kPa	1599.9
278.16 K, 300500 kPa	1940
278.17 K, 349800 kPa	2017.6
278.17 K, 599300 kPa	2344.6
278.17 K, 651900 kPa	2402.7
278.17 K, 701300 kPa	2451
278.19 K, 109200 kPa	1614.9
278.19 K, 159900 kPa	1705.3
278.19 K, 700600 kPa	2446.5
278.24 K, 100 kPa	1425.6
288 K, 450300 kPa	2162.1
288.07 K, 300700 kPa	1953.9
288.07 K, 600900 kPa	2346.8
288.08 K, 100 kPa	1463.4
288.08 K, 50800 kPa	1549.6
288.08 K, 149800 kPa	1717.5
288.08 K, 250500 kPa	1878.9
288.08 K, 350800 kPa	2026.4
288.08 K, 400300 kPa	2094.6
288.08 K, 699800 kPa	2453.6
288.09 K, 50900 kPa	1549.8
288.09 K, 110900 kPa	1650.2
288.09 K, 160100 kPa	1733.4
288.09 K, 349600 kPa	2026.1
288.09 K, 599500 kPa	2345.8
288.1 K, 499500 kPa	2226.5
288.1 K, 499700 kPa	2225.7
288.11 K, 100 kPa	1461.4
288.11 K, 200800 kPa	1799.7
288.11 K, 299800 kPa	1952.9
288.11 K, 599900 kPa	2344.8
288.11 K, 700800 kPa	2455.2
288.12 K, 200300 kPa	1800.1
288.12 K, 250000 kPa	1878.5
288.12 K, 399800 kPa	2094.8
288.13 K, 100 kPa	1462.4

Reference: the NIST ThermoML archive (doi:10.1021/je200668a)
